Measurements as given in the supplement of paper PMC10307832.

Tests used:
Assay in all cases: relative viability (nuclei count vs DMSO), 5 days (fraction); higher = more cells survive
Zosuquidar + Alpelisib = compound: O[C@@H](COc1cccc2ncccc12)CN1CCN([C@@H]2c3ccccc3[C@@H]3[C@H](c4ccccc42)C3(F)F)CC1 [Zosuquidar] + Cc1nc(NC(=O)N2CCC[C@H]2C(N)=O)sc1-c1ccnc(C(C)(C)C(F)(F)F)c1 [Alpelisib] (partner 2 µM)
Outline: (§1)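 Relative viability divides the nuclei count in treated wells by that in vehicle wells. Lung cancer cell lines were seeded in 1536-well plates, dosed by pin tool the next day, and fixed and stained after 5 days in one step with final 0.05% Triton X-100, 1% formaldehyde and 1 ug/ml Hoechst. Dosing was a single drug or a fixed anchor-drug dose plus five library-drug doses (not always all listed) in √10 steps, and values are medians of duplicate plates imaged at 4×.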

[1] = compound: COc1cc2nccc(Oc3ccc(NC(=O)C4(C(=O)Nc5ccc(F)cc5)CC4)cc3)c2cc1OC [Cabozantinib] + C[C@@H](Oc1cc(-c2cnn(C3CCNCC3)c2)cnc1N)c1c(Cl)ccc(F)c1Cl [Crizotinib] (partner 1 µM)
Outline: as §1

Cabozantinib + Alpelisib = compound: COc1cc2nccc(Oc3ccc(NC(=O)C4(C(=O)Nc5ccc(F)cc5)CC4)cc3)c2cc1OC [Cabozantinib] + Cc1nc(NC(=O)N2CCC[C@H]2C(N)=O)sc1-c1ccnc(C(C)(C)C(F)(F)F)c1 [Alpelisib] (partner 2 µM)
Outline: as §1

Kobe2602 + Alpelisib = compound: C1=CC(=CC=C1NC(=S)NNC2=C(C=C(C=C2[N+](=O)[O-])C(F)(F)F)[N+](=O)[O-])F [Kobe2602] + Cc1nc(NC(=O)N2CCC[C@H]2C(N)=O)sc1-c1ccnc(C(C)(C)C(F)(F)F)c1 [Alpelisib] (partner 2 µM)
Outline: as §1

Cell Line	relative viability (Zosuquidar + Alpelisib; first compound 0.01 µM)	relative viability (Zosuquidar + Alpelisib; first compound 0.03162 µM)	relative viability (Zosuquidar + Alpelisib; first compound 0.1 µM)	relative viability (Zosuquidar + Alpelisib; first compound 0.3162 µM)	relative viability (Zosuquidar + Alpelisib; first compound 1 µM)	relative viability ([1]; first compound 0.02 µM)	relative viability ([1]; first compound 0.06325 µM)	relative viability ([1]; first compound 0.2 µM)	relative viability ([1]; first compound 0.6325 µM)	relative viability ([1]; first compound 2 µM)	relative viability (Cabozantinib + Alpelisib; first compound 0.02 µM)	relative viability (Cabozantinib + Alpelisib; first compound 0.06325 µM)	relative viability (Cabozantinib + Alpelisib; first compound 0.2 µM)	relative viability (Cabozantinib + Alpelisib; first compound 0.6325 µM)	relative viability (Cabozantinib + Alpelisib; first compound 2 µM)	relative viability (Kobe2602 + Alpelisib; first compound 0.2 µM)	relative viability (Kobe2602 + Alpelisib; first compound 0.6325 µM)	relative viability (Kobe2602 + Alpelisib; first compound 6.325 µM)	relative viability (Kobe2602 + Alpelisib; first compound 20 µM)	relative viability (Kobe2602 + Alpelisib; first compound 2 µM)
NCI-H1666	0.876	1.04	1.04	0.912	0.863	0.965	1	1.05	1.1	1.08	1.02	1.09	0.924	0.972	1.03	0.97	0.925	0.893	0.768	
NCI-H1703	0.355	0.325	0.237	0.438	0.345		0.296	0.172	0.249	0.175	0.265	0.182	0.223	0.23	0.151	0.313	0.347	0.392	0.306	0.333
NCI-H1734	0.815	0.666	0.631	0.809	0.643	0.809	0.761	0.687	0.73	0.635	0.718	0.681	0.717	0.654	0.638	0.71	0.816	0.726	0.784	0.665
NCI-H1755	0.89	0.951	0.888	0.94	0.913	0.972	0.964	0.942	0.797	0.781	0.993	0.919	0.882	0.877	0.764	0.906	0.874	0.866	0.956	0.919
NCI-H1792	0.66	0.813	0.53	0.705	0.799	0.841	1.1	0.999	0.962	1.03	0.721	0.799	0.721	0.557	0.657	0.633	0.749	0.615	0.679	0.696
NCI-H1915	1.04	1.1	0.989	1.06	1.08	0.923	0.904	0.888	0.896	0.996	1.1	1.08	1.03	1.08	1.07	1.1	1.09	1.06	1.05	1.02
NCI-H1944	0.836	0.722	0.717	0.837	0.765		1.26	1.1	1.07	1.21		0.848	0.78	0.75	0.778	0.803	0.884	0.805	0.944	0.885
NCI-H1975	0.624	0.653	0.679	0.675	0.713	1.09	1.05	0.948	1.09	0.83	0.675	0.807	0.669	0.604	0.623	0.641	0.648	0.564	0.524	0.559
NCI-H1993	0.628	0.725	0.625	0.674	0.705	0.798	1.04	0.682	0.856	0.884	0.71	0.719	0.662	0.713	0.798	0.67	0.844	0.669	0.666	0.591
NCI-H2009	1.08	0.96	1.19	1.15	1.14	1.11	1.09	1.15	1.09	1.04	1.25	1.21	1.16	1.14	1.21	1.12	1.22	1.3	1.18	1.13
NCI-H2023	0.601	0.636	0.6	0.548	0.613	0.746	0.755	0.714	0.601	0.724	0.613	0.591	0.559	0.514	0.335	0.561	0.58	0.516	0.498	0.588
NCI-H2085	0.957	0.917	0.893	1	0.977	0.949	0.921	0.992	0.898	0.799	1.15	1.01	0.982	0.915	0.843	1.04	0.99	1.01	1.05	0.894
NCI-H2087	1	1.28	1.2	1.19	1.15	0.95	0.831	0.75	0.871	0.99	1.07	1.12	0.978	1.03	0.995	1.27	1.08	1.11	1.03	1.09
NCI-H2126	0.755	0.741	0.554	0.837	0.797	1.03	1.04	1.01	1.04	1.02	0.798	0.764	0.73	0.755	0.765	0.688	0.817	0.735	0.806	0.726
NCI-H2170	0.799	0.786	0.774	0.821	0.769	1.33	1.4	1.27	1.15	1.19	0.842	0.958	0.723	0.854	0.781	0.807	0.86	0.726	0.772	0.794
NCI-H2228	0.562	0.716	0.881	0.679	0.859	0.581	0.496	0.505	0.403	0.315	0.794	0.922	0.784	0.564	0.711	0.724	0.712	0.713	0.776	0.747
